Assay results reported in publication PMC9060465 (Proceedings of the National Academy of Sciences of the …, 2022).
pEC50, pKi: −log10 of the molar value.

Tests used:
[1] = target: T1, ECD of human GLP-1R (amino acids 24 to 145) (Homo sapiens, UniProt P43220); assay: GLP-1R extracellular domain binding by surface plasmon resonance; settings: SPR, 1:1 kinetic binding model; representative of n=3
T1 construct: GLP-1R (amino acids 24 to 145); 6His; made in house; host or cells: CHO cells
Text: DNA encoding each protein was transfected into CHO cells for expression. After expression, the proteins were purified by affinity chromatography (HIS-Trap Ni, Cytiva) followed by size exclusion chromatography using a HiLoad 26/600 Superdex 75pg column (Cytiva) with PBS buffer. […] Surface plasmon resonance measurements were made using a Biacore T200 (Cytiva) and analyzed using T200 Evaluation Software Version 3.1. Receptor ectodomain proteins were covalently immobilized (∼250 resonance units) on Sensor Chip CM4 BR100534 using the Amine coupling Immobilization Wizard in the Biacore T200 Control Software Version 2.0.2. Running buffer was HBS-EP (10 mM Hepes, 150 mM NaCl, 3 mM EDTA, 0.05% P20 [pH 7.6]; Teknova). Concentration series for each sample were made by serial dilution in running buffer. The samples were injected for 150 sec at a 30-µL/min flow rate, followed by 300 sec of dissociation. The surface was regenerated between samples with 10 mM glycine (pH 1.7).
Fig. S10. Receptor extracellular domain (ECD) binding affinity of peptides. Purified GIPR (left column) and GLP-1R (right column) extracellular domains were immobilized to biosensor […]
mM). […]
and efficacy (% Top) of ligands to induce Gα s -GTPγS binding and cAMP accumulation in HEK293 cells expressing GIPR were determined. The equilibrium affinity (KD) of ligands for the immobilized ectodomain of the GIPR were quantified by surface plasmon resonance. […]
(§1) Functional potency (EC50) and efficacy (% Top) of ligands to induce Gα s-GTPγS binding and cAMP accumulation in HEK293 cells expressing GLP-1R were determined. The equilibrium affinity (KD) of ligands for the immobilized ectodomain of the GLP-1R were quantified by surface plasmon resonance. […]
(§2) recruitment to the GLP-1R were determined using the NanoBRET approach. The potency (EC50) and efficacy (% Top) for ligands to induce GLP-1R Internalization were determined using diffusion-enhanced resonance energy transfer. […]
relative efficacy for NanoBRET assays. SPR data were analyzed using T200 evaluation software (Cytiva). […] ND, not determined. […]

GLP-1R [2] = target: T2, GLP-1R (Homo sapiens, UniProt P43220); assay: Ligand-induced GLP-1R internalization, SNAP-GLP-1R HEK293 cells; type: cell-based; settings: efficacy (% Top), percent internalization compared to maximal GLP-1; (SEM)
Target sequence in this assay (P43220 24-463): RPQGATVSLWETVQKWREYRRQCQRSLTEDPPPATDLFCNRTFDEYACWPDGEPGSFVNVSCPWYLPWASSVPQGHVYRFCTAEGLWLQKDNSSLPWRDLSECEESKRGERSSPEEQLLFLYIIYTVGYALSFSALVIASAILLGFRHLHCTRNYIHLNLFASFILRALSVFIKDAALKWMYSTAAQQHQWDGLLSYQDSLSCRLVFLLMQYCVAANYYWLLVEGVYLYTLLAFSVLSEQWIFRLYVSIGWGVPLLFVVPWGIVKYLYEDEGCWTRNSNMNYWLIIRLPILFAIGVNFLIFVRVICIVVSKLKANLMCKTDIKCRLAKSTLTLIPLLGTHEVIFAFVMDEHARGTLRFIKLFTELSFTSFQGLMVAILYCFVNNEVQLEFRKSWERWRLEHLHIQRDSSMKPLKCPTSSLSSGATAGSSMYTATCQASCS

human GIPR [3] = target: T3, human GIPR (Homo sapiens, UniProt P48546); assay: [125I]GIP(1-42) competition binding, GIPR-expressing cell membranes; settings: membranes of HEK293 cells expressing human GIPR, albumin-free, geometric mean (SEM, n)
T3 construct: expressed in transfected cells; host or cells: HEK293
T3 sequence (P48546 22-466): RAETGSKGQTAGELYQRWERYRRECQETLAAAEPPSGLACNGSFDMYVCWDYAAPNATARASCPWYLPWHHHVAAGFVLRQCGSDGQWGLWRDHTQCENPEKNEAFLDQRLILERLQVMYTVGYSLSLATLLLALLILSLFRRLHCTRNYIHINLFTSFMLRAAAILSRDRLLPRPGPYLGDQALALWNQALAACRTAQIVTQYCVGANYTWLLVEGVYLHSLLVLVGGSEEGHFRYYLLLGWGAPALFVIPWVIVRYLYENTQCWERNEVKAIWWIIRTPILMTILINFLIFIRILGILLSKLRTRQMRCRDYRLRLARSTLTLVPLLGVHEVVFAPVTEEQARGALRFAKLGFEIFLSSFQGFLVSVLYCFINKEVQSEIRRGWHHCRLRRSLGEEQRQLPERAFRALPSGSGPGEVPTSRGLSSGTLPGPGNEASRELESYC
Text: (§3) We note that the albumin-binding propensity of fatty acid-modified peptides can confound a pharmacological comparison of molecules, given the common use of albumin and serum as nonspecific blocking agents in biological assays. Therefore, to obviate this, entirely albumin-free assays supplemented with bovine casein or bacitracin were used to prevent nonspecific binding ([10]).
(§4) Functional potency (EC50)
(§5) and efficacy (% Top) of ligands to induce Gα s -GTPγS binding and cAMP accumulation in HEK293 cells expressing GIPR were determined. The equilibrium affinity (KD) of
(§6) ligands for the immobilized ectodomain of the GIPR were quantified by surface plasmon resonance. […]
(§7) SPR data were analyzed using T200 evaluation software (Cytiva). All data are presented as geometric means with SEM and n values
(§8) according to established practices. ND, not determined. NA, not applicable.

human GIPR [4] = target: T3, human GIPR; assay: GIPR low density cAMP accumulation in HEK293 cells; type: cell-based
Experimental: (§9) Fig. 4. […] (B) Ligand-induced GTPγS binding of Gαs was performed using the GIPR-expressing membranes. […] (C) Agonist-stimulated cAMP production was measured in human GIPR expressing HEK293 cells. […] (E) Ligand-induced GTPγS binding of Gαs was performed using the GLP-1R-expressing membranes. […] (F) Agonist-stimulated cAMP production was measured in human GLP-1R-expressing HEK293 cells. […] Data presented are representative of n ≥ 3 independent experiments. Summarized data are shown in SI Appendix, Table 2. log M; log Molar.
as §3, §4, §5, §6, §7, §8

GLP-1R [5] = target: T2, GLP-1R; assay: GLP-1R Gαs [35S]GTPγS binding, GLP-1R-expressing membranes; type: biochemical; design: expressed in transfected cells; host or cells: HEK293; settings: efficacy (% Top), normalized to GLP-1(7-36); (SEM)
Experimental: as §9
(§10) We note that the albumin-binding propensity of fatty acid-modified peptides can confound a pharmacological comparison of molecules, given the common use of albumin and serum as nonspecific blocking agents in biological assays. Therefore, to obviate this, entirely albumin-free assays supplemented with bovine casein or bacitracin were used to prevent nonspecific binding ([10]). […]
(§11) Middle Panel: The affinity (Ki) of ligands for the GLP-1R was […]
as §1
(§12) SPR data were analyzed using T200 evaluation software (Cytiva). All data are presented as geometric means with SEM and n values according to established practices. ND, not determined. NA, not applicable.
Target sequence in this assay (P43220 24-463): as the sequence (P43220 24-463) above

GLP-1R [6] = target: T2, GLP-1R; assay: β-arrestin 1 recruitment to the GLP-1R, NanoBRET; type: cell-based; design: expressed in transfected cells; settings: efficacy (% Top), relative efficacy to GLP-1; (SEM)
Experimental: Functional potency (EC50) […]
and efficacy (% Top) of ligands to induce Gα s -GTPγS binding and cAMP accumulation in HEK293 cells expressing GIPR were determined. The equilibrium affinity (KD) of ligands for the immobilized ectodomain of the GIPR were quantified by surface plasmon resonance. Middle Panel: The affinity (Ki) of ligands for the GLP-1R was […]
as §1, §2
Target sequence in this assay (P43220 24-463): as the sequence (P43220 24-463) above
Target sequence in this assay (P49407 whole entry partner): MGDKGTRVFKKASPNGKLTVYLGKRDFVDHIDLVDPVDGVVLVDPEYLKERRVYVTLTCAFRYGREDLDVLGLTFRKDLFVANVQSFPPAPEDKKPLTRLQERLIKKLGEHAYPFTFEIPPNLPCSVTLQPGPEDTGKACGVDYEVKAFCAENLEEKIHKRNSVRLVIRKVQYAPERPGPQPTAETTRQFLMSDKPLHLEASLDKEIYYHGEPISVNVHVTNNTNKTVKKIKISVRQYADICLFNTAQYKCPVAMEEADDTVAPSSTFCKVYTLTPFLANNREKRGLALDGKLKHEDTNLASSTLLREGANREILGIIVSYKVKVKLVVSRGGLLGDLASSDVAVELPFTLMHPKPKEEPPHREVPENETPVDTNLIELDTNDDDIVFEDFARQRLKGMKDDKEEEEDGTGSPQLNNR
relative efficacy for NanoBRET assays. SPR data were analyzed using T200 evaluation software (Cytiva). All data are presented as geometric means with SEM and n values according to established practices. ND, not determined. NA, not applicable.

GLP-1R [7] = target: T2, GLP-1R; assay: GRK2 recruitment to the GLP-1R, NanoBRET; type: cell-based; design: expressed in transfected cells; host or cells: freestyle HEK cells; settings: efficacy (% Top), relative to maximal GLP-1; (SEM)
Experimental: After 48 h, transfected cells were incubated in phosphate-buffered saline (PBS) containing 0.1% (wt/vol) bovine casein and varying concentrations of the ligands. […]
The potency (EC50) and efficacy (% Top) for ligands to induce GLP-1R Internalization were
determined using diffusion-enhanced resonance energy transfer.
relative efficacy for NanoBRET assays. SPR data were analyzed using T200 evaluation software (Cytiva). All data are presented as geometric means with SEM and n values
as §8
Target sequence in this assay (P43220 24-463): as the sequence (P43220 24-463) above
Target sequence in this assay (P25098 whole entry partner): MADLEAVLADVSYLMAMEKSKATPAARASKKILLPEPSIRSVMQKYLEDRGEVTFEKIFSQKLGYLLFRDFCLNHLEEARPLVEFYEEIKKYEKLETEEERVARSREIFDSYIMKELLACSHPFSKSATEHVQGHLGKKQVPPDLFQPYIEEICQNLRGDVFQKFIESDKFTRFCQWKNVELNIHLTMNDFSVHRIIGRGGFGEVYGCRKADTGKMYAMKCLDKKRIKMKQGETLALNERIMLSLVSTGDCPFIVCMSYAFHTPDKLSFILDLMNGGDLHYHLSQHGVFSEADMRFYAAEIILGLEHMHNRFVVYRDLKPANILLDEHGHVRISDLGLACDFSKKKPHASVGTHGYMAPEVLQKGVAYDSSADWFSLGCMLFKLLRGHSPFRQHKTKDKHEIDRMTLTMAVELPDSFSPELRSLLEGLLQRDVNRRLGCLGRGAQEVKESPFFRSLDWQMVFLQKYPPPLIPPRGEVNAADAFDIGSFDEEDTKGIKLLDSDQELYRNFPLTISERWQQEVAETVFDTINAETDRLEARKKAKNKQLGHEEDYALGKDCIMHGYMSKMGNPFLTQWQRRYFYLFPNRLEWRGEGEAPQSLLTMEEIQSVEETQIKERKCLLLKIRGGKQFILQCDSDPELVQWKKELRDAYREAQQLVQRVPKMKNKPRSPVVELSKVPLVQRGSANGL

GLP-1R [8] = target: T2, GLP-1R; assay: GLP-1R low density cAMP accumulation in HEK293 cells; type: cell-based; design: expressed in transfected cells; host or cells: HEK293; settings: efficacy (% Top), normalized to GLP-1(7-36); (SEM)
Experimental: as §9, §10, §11, §1, §12
Target sequence in this assay (P43220 24-463): as the sequence (P43220 24-463) above

human GIPR [9] = target: T3, human GIPR; assay: GIPR Gαs [35S]GTPγS binding, GIPR-expressing membranes; type: biochemical; settings: Gαs-GTPγS binding, GIPR-expressing membranes; albumin-free; geometric mean (SEM, n); read-out: GIPR GTPγS Recruitment EC50
Experimental: as §9, §3, §4, §5, §6, §7, §8

T1 sequence (P43220 24-145): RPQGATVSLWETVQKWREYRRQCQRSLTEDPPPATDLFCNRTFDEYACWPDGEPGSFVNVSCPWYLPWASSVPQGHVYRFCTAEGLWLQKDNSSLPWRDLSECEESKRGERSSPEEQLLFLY

SMILES | GLP-1R ECD kinetic KD [1] | GLP-1R Internalization Top (GLP-1R [2]) | pKi (human GIPR [3]) | pEC50 (human GIPR [4]; cAMP accumulation, HEK293 cells expressing GIPR, albumin-free, geometric mean (SEM, n)) | GIPR Low Density cAMP Top (human GIPR [4]; efficacy (% Top), normalized to GIP(1-42), (SEM)) | GLP-1R GTPγS Recruitment Top (GLP-1R [5]) | GLP-1R β-Arr1 Recruitment Top (GLP-1R [6]) | GLP-1R GRK2 Recruitment Top (GLP-1R [7]) | GLP-1R Low Density cAMP Top (GLP-1R [8]) | pEC50 (human GIPR [9])
CC[C@H](C)[C@H](NC(=O)[C@H](CO)NC(=O)[C@H](Cc1ccc(O)cc1)NC(=O)[C@H](CC(=O)O)NC(=O)[C@H](CO)NC(=O)[C@@H](NC(=O)[C@H](Cc1ccccc1)NC(=O)[C@@H](NC(=O)CNC(=O)[C@H](CCC(=O)O)NC(=O)[C@H](C)NC(=O)[C@@H](N)Cc1ccc(O)cc1)[C@@H](C)O)[C@@H](C)CC)C(=O)N[C@@H](C)C(=O)N[C@@H](CCSC)C(=O)N[C@@H](CC(=O)O)C(=O)N[C@@H](CCCCN)C(=O)N[C@H](C(=O)N[C@@H](Cc1c[nH]cn1)C(=O)N[C@@H](CCC(N)=O)C(=O)N[C@@H](CCC(N)=O)C(=O)N[C@@H](CC(=O)O)C(=O)N[C@@H](Cc1ccccc1)C(=O)N[C@H](C(=O)N[C@@H](CC(N)=O)C(=O)N[C@@H](Cc1c[nH]c2ccccc12)C(=O)N[C@@H](CC(C)C)C(=O)N[C@@H](CC(C)C)C(=O)N[C@@H](C)C(=O)N[C@@H](CCC(N)=O)C(=O)N[C@@H](CCCCN)C(=O)NCC(=O)N[C@@H](CCCCN)C(=O)N[C@@H](CCCCN)C(=O)N[C@@H](CC(N)=O)C(=O)N[C@@H](CC(=O)O)C(=O)N[C@@H](Cc1c[nH]c2ccccc12)C(=O)N[C@@H](CCCCN)C(=O)N[C@@H](Cc1c[nH]cn1)C(=O)N[C@@H](CC(N)=O)C(=O)N[C@H](C(=O)N[C@H](C(=O)N[C@@H](CCC(N)=O)C(N)=O)[C@@H](C)O)[C@@H](C)CC)C(C)C)[C@@H](C)CC [GIP, reference compound] | No kinetic fit possible | – | – | – | – | – | – | – | – | –
CC[C@H](C)[C@H](NC(=O)[C@H](Cc1ccccc1)NC(=O)[C@H](CCC(=O)O)NC(=O)[C@H](CCCCN)NC(=O)[C@H](C)NC(=O)[C@H](C)NC(=O)[C@H](CCC(N)=O)NC(=O)CNC(=O)[C@H](CCC(=O)O)NC(=O)[C@H](CC(C)C)NC(=O)[C@H](Cc1ccc(O)cc1)NC(=O)[C@H](CO)NC(=O)[C@H](CO)NC(=O)[C@@H](NC(=O)[C@H](CC(=O)O)NC(=O)[C@H](CO)NC(=O)[C@@H](NC(=O)[C@H](Cc1ccccc1)NC(=O)[C@@H](NC(=O)CNC(=O)[C@H](CCC(=O)O)NC(=O)[C@H](C)NC(=O)[C@@H](N)Cc1ccc(O)cc1)[C@@H](C)O)[C@@H](C)O)C(C)C)C(=O)N[C@@H](C)C(=O)N[C@@H](Cc1c[nH]c2ccccc12)C(=O)N[C@@H](CC(C)C)C(=O)N[C@H](C(=O)N[C@@H](CCCCN)C(=O)NCC(=O)N[C@@H](CCCNC(=N)N)C(N)=O)C(C)C [GLP-1 H7Y, reference compound] | – | 73.1 (3.4) % | < 6.89 | < 5.40 | 39.4(9.5) % | 80.7 (2.2) % | 35.3 (3.8) % | 54.5 (2.1) % | 104 (4) % | < 6.00
